We go through two sequences from patent US20130109635A1, “Humanin Decreases Liver Fat and Visceral Fat Accumulation” (priority 2011, published 2013).

The test system of one assay is CPT1b. Put plainly: Liver gene expression in HFD animals: CPT1b. It is filed as in vivo, mice. Conditions: data not shown. The source says: (§1) To understand the mechanisms through which Humanin decreases liver lipid content, representative genes involved in lipid synthesis (SREBP-1, FAS), lipid oxidation (CPT1b) and lipid packaging and export from liver were studied. […] The role of MTTP was confirmed by studying enzyme activity.

The subject of another assay is FAS. Put plainly: Liver gene expression in HFD animals: FAS. The format is in vivo, mice. Conditions: data not shown.
From the text: as §1

For the next assay, the system named is SREBP-1. Put plainly: Liver gene expression in HFD animals: SREBP-1. It is filed as in vivo, mice. The note with it: data not shown.
From the text: as §1

The nature of assay [1]: High fat diet (60% fat) for one month with daily injections of HNG: food intake, body weight, visceral fat, liver fat, serum lipids. It is filed as in vivo, mice. Conditions: HNG 2 mg/kg daily. As to the method:
(§2) The effect of humanin analog, HNG, on hepatic lipid fluxes was investigated. In the acute study, HNG was infused into third ventricle (ICV) of awake, unstressed and chronically catheterized Sprague-Dawley rats and C57BLK6 mice and studied plasma triglyceride (TG) levels following an injection of Tyloxapol (Triton WR1339, Sigma-Aldrich Corp, St. Louis, Mo.), an inhibitor of TG clearance. Groups of animals were also challenged with high fat diet (HFD) of 60% fat for one month and were treated with either daily injections of saline or of HNG (2 mg/kg). Body weight and Food intake were monitored twice a week. At the end of one month, liver fat was assessed both by histology and estimation of tissue triglycerides and plasma was collected. Total amount of visceral fat (VF) was determined and the specific depots were meticulously dissected and weighed. Tissue samples were snap-frozen for subsequent analysis.
Chronic effects of Humanin on liver lipid content: Groups of animals were challenged with high fat diet (HFD-60% fat) for one month and were treated with either daily injections of saline or HNG (2 mg/kg). At the end of one month, liver fat were assessed both by histology and estimation of tissue triglycerides.

In a further assay the test system is MTTP. The assay is described as follows: MTTP enzyme activity in liver of HFD animals (Roar Biomedical). It is filed as in vivo, mice. The note with it: HNG 2 mg/kg daily, p<0.01.
From the text: as §1

The subject of assay [2] is triglyceride secretion from liver. The assay is described as follows: Acute ICV infusion of HNG with tyloxapol injection, plasma TG levels, mice. The note with it: mouse, in vivo. Details: species or system C57BLK6 mice. How it is done: as §2
(§3) With infusion of tyloxapol, there was a steady increase in plasma triglyceride levels in both groups from inhibition of TG clearance. […] The rate of TG secretion was calculated in the animals based on plasma triglyceride levels at 0 and 120 min time points using the following equation: secretion rate of TG/hr mg/min=(TG at 120 min−TG at 0 min)/number of hours.

The test system of a further assay is Apo B. The assay is described as follows: Liver gene expression in HFD animals: Apo B. It is filed as in vivo, mice. The note with it: livers of HFD animals, HNG 2 mg/kg daily.
From the text: as §1

Assay [3] has as its system Microsomal triglyceride transport protein (MTTP). The assay is described as follows: Liver gene expression in HFD animals: MTTP. The format is in vivo, mice. The note with it: livers of HFD animals, HNG 2 mg/kg daily.
From the text: as §1

Assay [4] concerns triglyceride secretion from liver. The assay is described as follows: Acute ICV infusion of HNG with tyloxapol injection, plasma TG levels, rats. It is filed as in vivo, Sprague-Dawley rats. As to the method:
as §2
Acute effects of Humanin on liver fluxes: The effect of HN was studied in acute and chronic treatment models. […]
as §3

Consider “MAPRGFSCLLLLTSEIDLPVKRRA (HOMO SAPIENS) [HN, humanin peptide]”, for which the “expression of CPT1b vs control” value with CPT1b was “no differences”. Besides, the “expression of FAS vs control” value with FAS is on record as “no differences”. Also, the “expression of SREBP-1 vs control” value in the assay with SREBP-1 is “no differences”.

For the sequence “MAPRGFSCLLLLTGEIDLPVKRRA (ANALOG OF HUMAN HUMANIN PEPTIDE) [HNG]”, in assay [1] (HFD for 4 weeks), the “visceral fat (VF) gain vs control” value is on record as “gained significantly less VF” and the “weight gain vs control” value is on record as “gained significantly less weight”. Moreover, the “liver fat (hepatic triglyceride content)” value in assay [1] (HFD one month, p<0.05 vs control 70.83±3.74) is recorded as 59.78±2.24 μg/mg of tissue. In addition, the “MTTP activity vs control” value in the assay on MTTP is reported as “significantly higher”. The “triglyceride secretion from liver” value in [2] is “increases”. Besides, the “expression of Apo B vs control” value in the assay on Apo B is “significantly higher”. Further, the “expression of MTTP vs control” value in [3] is recorded as “significantly higher”. Further, the “serum TG levels at 120 min” value in [4] (120 min after tyloxapol 600 mg/kg, p<0.05 vs aCSF 4.33±0.33) was determined as 5.5 ± 0.29 mg/mL. The “rate of TG secretion” value in [4] ((TG at 120 min − TG at 0 min)/number of hours, p<0.05 vs aCSF 2.23±0.16) was determined as 2.7 ± 0.2 mg/mL/h.
